According to ChEMBL document CHEMBL3351864, “Beyond paraquats: dialkyl 3,3'- and 3,4'-bipyridinium amphiphiles as antibacterial agents” (2014):

Assays:
Assay type in all cases: functional
Enterococcus faecalis = assay: Antibacterial activity against Enterococcus faecalis OG1RF after 72 hrs by broth microdilution method
Pseudomonas aeruginosa = assay: Antibacterial activity against Pseudomonas aeruginosa PAO1 WT after 72 hrs by broth microdilution method; settings: PAO1, 72 h
Escherichia coli = assay: Antibacterial activity against Escherichia coli MC4100 after 72 hrs by broth microdilution method; settings: MC4100, 72 h
Staphylococcus aureus = assay: Antibacterial activity against Staphylococcus aureus SH1000 after 72 hrs by broth microdilution method; settings: SH1000, 72 h

Compound	MIC (Enterococcus faecalis)	MIC (Pseudomonas aeruginosa)	MIC (Escherichia coli)	MIC (Staphylococcus aureus)
CCCCCCCCCCCC[n+]1cccc(-c2ccc[n+](Cc3ccccc3)c2)c1	63 µM	250 µM	32 µM	8 µM
CCCCCCCCCCCC[n+]1cccc(-c2ccc[n+](C)c2)c1	125 µM	250 µM	125 µM	125 µM
CCCCCCCCCCCCCCCC[n+]1ccc(-c2ccc[n+](CCCCCCCCCCCCCCCC)c2)cc1	4 µM	63 µM	16 µM	2 µM
CCCCCCCC[n+]1ccc(-c2ccc[n+](CCCCCCCC)c2)cc1	125 µM	> 500 µM	125 µM	125 µM
CCCCCCCCCCCC[N+](C)(C)Cc1ccccc1 [BENZODODECINIUM CHLORIDE]	8 µM	63 µM	32 µM	8 µM
CCCCCCCCCC[n+]1cccc(-c2ccc[n+](CCCCCCCCCC)c2)c1	2 µM	8 µM	2 µM	2 µM
CCCCCCCC[n+]1cccc(-c2ccc[n+](CCCCCCCC)c2)c1	125 µM	> 500 µM	250 µM	32 µM
CCCCCCCCCC[n+]1ccc(-c2ccc[n+](CCCCCCCCCC)c2)cc1	2 µM	16 µM	2 µM	2 µM
CCCCCCCCCCCC[n+]1cccc(-c2cccnc2)c1	63 µM	250 µM	63 µM	8 µM

Further molecules by falling MIC (Enterococcus faecalis), results first:

MIC (Enterococcus faecalis)	MIC (Pseudomonas aeruginosa)	MIC (Escherichia coli)	MIC (Staphylococcus aureus)	Compound
2 µM	4 µM	2 µM	2 µM	CCCCCCCCCCCC[n+]1cccc(-c2ccc[n+](CCCCCCCCCC)c2)c1
2 µM	16 µM	4 µM	2 µM	CCCCCCCCCCCCCC[n+]1cccc(-c2ccc[n+](CCCCCCCCCCCCCC)c2)c1
1 µM	2 µM	1 µM	0.5 µM	CCCCCCCCCCC[n+]1cccc(-c2ccc[n+](CCCCCCCCCCC)c2)c1
1 µM	16 µM	2 µM	2 µM	CCCCCCCCCCCCCC[n+]1ccc(-c2ccc[n+](CCCCCCCCCCCCCC)c2)cc1
1 µM	16 µM	8 µM	2 µM	CCCCCCCCCCCCCCCC[n+]1cccc(-c2ccc[n+](CCCCCCCCCCCCCCCC)c2)c1
1 µM	2 µM	0.5 µM	1 µM	CCCCCCCCCCCC[n+]1ccc(-c2ccc[n+](CCCCCCCCCCCC)c2)cc1
1 µM	2 µM	1 µM	1 µM	CCCCCCCCCCCC[n+]1cccc(-c2ccc[n+](CCCCCCCCCCCC)c2)c1
1 µM	8 µM	2 µM	2 µM	CCCCCCCCCCCCCC[n+]1cccc(-c2ccc[n+](CCCCCCCCCCCC)c2)c1
0.5 µM	1 µM	0.5 µM	0.5 µM	CCCCCCCCCCC[n+]1ccc(-c2ccc[n+](CCCCCCCCCCC)c2)cc1
